According to PubChem BioAssay (NCI):
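Interpolation was linear, between the two tested concentrations surrounding the appropriate level; five concentrations were tested over 48 hours in 96-well plates. The concentration for full growth arrest is given as TGI.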

Columns and labels:
Test in all cases: NCI anticancer screen, dose series, 48 h
CCRF-CEM leukemia = test system: CCRF-CEM leukemia
EKVX NSCLC = test system: EKVX NSCLC
IGROV1 ovarian = test system: IGROV1 ovarian
M14 melanoma = test system: M14 melanoma
MCF7 breast = test system: MCF7 breast
MDA-MB-435 = test system: MDA-MB-435
SF-295 CNS = test system: SF-295 CNS
TK-10 renal = test system: TK-10 renal
U251 CNS = test system: U251 CNS
UO-31 renal = test system: UO-31 renal

Row | SMILES | TGI (CCRF-CEM leukemia) [µM] | TGI (EKVX NSCLC) [µM] | TGI (IGROV1 ovarian) [µM] | TGI (M14 melanoma) [µM] | TGI (MCF7 breast) [µM] | TGI (MDA-MB-435) [µM] | TGI (SF-295 CNS) [µM] | TGI (TK-10 renal) [µM] | TGI (U251 CNS) [µM] | TGI (UO-31 renal) [µM]
1 | O=C(O)Cc1ccc(Oc2nc3ccccc3nc2-c2cccs2)cc1 | > 100 | > 100 | > 100 | > 100 | > 100 | > 100 | > 100 | > 100 | > 100 | > 100
2 | CN(Cc1c2ccccc2cc2ccccc12)S(=O)(=O)c1ccc(-c2c3nc(c(-c4ccc(S(=O)(=O)N(C)Cc5c6ccccc6cc6ccccc56)cc4)c4ccc([nH]4)c(-c4ccc(S(=O)(=O)N(C)Cc5c6ccccc6cc6ccccc56)cc4)c4nc(c(-c5ccc(S(=O)(=O)N(C)Cc6c7ccccc7cc7ccccc67)cc5)c5ccc2[nH]5)C=C4)C=C3)cc1 | > 100 | > 100 | > 100 | > 100 | > 100 | > 100 | > 100 | > 100 | > 100 | > 100
3 | COc1ccc(/C=N\N2CC(=O)N3C4C=CC(CC4)N3C2=O)cc1 (stereo not given) | > 100 | > 100 | > 100 | > 100 | > 100 | > 100 | > 100 | > 100 | > 100 | > 100
4 | COc1cc(C2c3cc4c(cc3C(O)C3CCC(=O)N23)OCO4)cc(OC)c1OC (stereo not given) | > 100 | > 100 | > 100 | > 100 | 81 | 18 | 32.6 | > 100 | 82.8 | 71.2
5 | Nc1ccc2c(c1)C1Oc3ccccc3CC1CO2 (stereo not given) | > 100 | > 100 | > 100 | > 100 | > 100 | > 100 | > 100 | > 100 | > 100 | > 100
6 | CCNC(=S)N/N=C/c1cc(OC)ccc1O | > 100 | > 100 | > 100 | > 100 | > 100 | > 100 | > 100 | > 100 | > 100 | > 100
7 | Cn1ccnc1CCc1ccc(F)cc1F | > 100 | > 100 | > 100 | > 100 | > 100 | > 100 | > 100 | > 100 | > 100 | > 100
8 | [O-][n+]1onc2c3nn(-c4ccccc4)nc3ccc21 | > 100 | > 100 | > 100 | > 100 | > 100 | > 100 | > 100 | > 88.7 | > 100 | > 100
9 | CSc1nc2ccccc2c(=O)n1/N=C1\C(=O)N(CN2CCOCC2)c2ccc(Cl)cc21 | > 100 | 64.8 | > 100 | > 100 | > 100 | > 100 | > 100 | 71.4 | > 100 | > 100
